Patent publication US20250009743A1, “METHODS OF TREATING CANCERS USING STING AGONISTS” (Dana-Farber Cancer Institute, Inc., priority 2021, published 2025)

What was measured:
bone marrow-derived DCs = experiment: STING pathway activation in DCs co-cultured with BP tumor cells; type: cell-based, mouse
Protocol: For flow cytometry analyses of tumor and TDLN samples, single-cell suspensions were obtained as described above (Tissue Digestion). Cells were stained in cold FACS buffer (PBS containing 0.2% BSA and 5 mM EDTA) with LIVE/DEAD Fixable Aqua Dead Cell Stain (Thermo Fisher) for 30 min on ice, followed by blocking with anti-CD16/32 (BioLegend) for 20 min on ice. Cells were then incubated in FACS buffer for 30 min on ice with antibodies specific to CD45 (clone 30-F11, BioLegend), TCR β chain (clone H57-597, BioLegend), CD38 (clone 145-2C11, BioLegend), CD4 (clone RM4-5, BioLegend), CD8a (clone 53-6.7, BioLegend), PD-1 (clone 29F.1A12, BioLegend), CD44 (clone IM7, BioLegend), CD62L (clone MEL-14, BioLegend), IFN-γ (clone XMG1.2, BioLegend), TNF-α (clone MP6-XT22, BioLegend), Granzyme B (clone NGZB, eBioscience), CD11c (clone N418, BioLegend), I-A/I-E (clone M5/114.15.2, BioLegend), CD80 (clone 16-10A1, BioLegend), CD86 (clone GL-1, BioLegend), CD103 (clone 2E7, BioLegend), CD11b (M1/70, BioLegend), F4/80 (clone BM8, BioLegend), phospho-TBK1 (Ser172) (clone D52C2, Cell Signaling Tech.) or phospho-IRF-3 (Ser396) (clone D601M, Cell Signaling Tech.). For intracellular staining, Foxp3/Transcription Factor Staining Buffer Set (eBioscience, #00-5523-00) was used for fixation and permeabilization. […] All data were analyzed using FlowJo software. […]

BP tumors = experiment: Flow cytometry of intratumoral immune cells of BP tumors; type: in vivo, mouse
Protocol: To obtain single-cell suspensions, tumors were excised, minced and dissociated in collagenase/hyaluronidase buffer [DMEM with 5% FBS, 10 mM HEPES (Gibco), 100 μg/mL penicillin-streptomycin, 20 μg/mL DNase I (StemCell) and 1× collagenase/hyaluronidase (StemCell)] for 45 min at 37° C. with agitation, followed by treatment with ammonium-chloride-potassium (ACK) buffer (Lonza) for red blood cell (RBC) lysis, and strained through a 70 μm strainer to remove undigested tumor tissues. Spleens and tumor-draining lymph nodes (TDLNs) were mechanically dissociated by passing the tissues through a 70 μm strainer using the plunger of a 5 ml syringe, and RBCs were lysed as described above.
For flow cytometry analyses of tumor and TDLN samples, single-cell suspensions were obtained as described above (Tissue Digestion). Cells were stained in cold FACS buffer (PBS containing 0.2% BSA and 5 mM EDTA) with LIVE/DEAD Fixable Aqua Dead Cell Stain (Thermo Fisher) for 30 min on ice, followed by blocking with anti-CD16/32 (BioLegend) for 20 min on ice. Cells were then incubated in FACS buffer for 30 min on ice with antibodies specific to CD45 (clone 30-F11, BioLegend), TCR β chain (clone H57-597, BioLegend), CD38 (clone 145-2C11, BioLegend), CD4 (clone RM4-5, BioLegend), CD8a (clone 53-6.7, BioLegend), PD-1 (clone 29F.1A12, BioLegend), CD44 (clone IM7, BioLegend), CD62L (clone MEL-14, BioLegend), IFN-γ (clone XMG1.2, BioLegend), TNF-α (clone MP6-XT22, BioLegend), Granzyme B (clone NGZB, eBioscience), CD11c (clone N418, BioLegend), I-A/I-E (clone M5/114.15.2, BioLegend), CD80 (clone 16-10A1, BioLegend), CD86 (clone GL-1, BioLegend), CD103 (clone 2E7, BioLegend), CD11b (M1/70, BioLegend), F4/80 (clone BM8, BioLegend), phospho-TBK1 (Ser172) (clone D52C2, Cell Signaling Tech.) or phospho-IRF-3 (Ser396) (clone D601M, Cell Signaling Tech.). For intracellular staining, Foxp3/Transcription Factor Staining Buffer Set (eBioscience, #00-5523-00) was used for fixation and permeabilization. For cytokine analysis, cells were stimulated with Leukocyte Activation Cocktail with protein transport inhibitor Brefeldin A (BD Biosciences, #550583) at 37° C. for 4 hours prior to the staining. Analysis of ϵ-HA2X (Ser139) was performed according to manufacturer's instructions. Briefly, ice-cold 70% ethanol (Decon) was added dropwise to the cell pellet while vortexing. Cells were then incubated at −20° C. for 1 hour and washed three times with cold staining buffer. For the staining, 5 μL p-HA2X antibody (clone 2F3, BioLegend) was added to approximately 1×10^6 cells in 100 μL staining buffer and incubated at 4° C. for 30 min. For Annexin V and 7-AAD staining, cells were detached with accutase (Sigma, #A6964). […] All data were analyzed using FlowJo software.

PBM-R tumors = experiment: PBM-R (PARPi-resistant) ovarian tumor burden in syngeneic FVB/NJ mice; type: in vivo, mouse; details: for PBM-R tumor growth inhibition: 14 days, olaparib 50 mg/kg i.p. daily, MSA-2 25 mg/kg i.p. three times a week, FIG. 23A
Protocol: The PBM and PBM-R tumor cells were transplanted orthotopically into syngeneic FVB/NJ mice to generated tumors for drug evaluation. Tumor-bearing mice were equivalently divided into control and treatment groups according to the luminescent intensity as previously described (Ding et al., 2018; Cell Rep 25, 2972-2980.e2975). Olaparib (AZD2281) was administered daily by i.p. injection at dose of 50 mg/kg body weight. Anti-PD-1 antibody (clone, 332.8H3) was diluted in PBS (250 μg/100 μl/mouse) and injected by i.p. every 3 days. MSA-2 was prepared by diluting 50 mg/ml stock in DMSO with PBS (pH 8.0) and administered every other day (three times a week, two weeks on followed by one week off) by i.p. injection at dose of 25 mg/kg body weight. The endpoints were determined by tumor burden and ascites.

human BMDMs = experiment: Polarization of human BMDMs cultured in CM from ovarian PDXs; type: cell-based
Protocol: For ex vivo culture of human macrophages, human BMDMs were generated from bone marrow mononuclear cells (BMMs) (CAT #70001) obtained from […] Technologies. Briefly, BMMs were cultured in DMEM containing 10% FBS, 55 μM 2-Mercaptoethanol (CAT #21985023, Thermo Fisher) and 50 ng/ml M-CSF for 5-7 days with media replacement every 3 days to obtain matured macrophages (BMDMs). […] Flow cytometry analysis was preformed to analyze the phenotypes of macrophages for both mouse and human BMDMs.

Row | SMILES | activation of STING pathway in co-cultured DCs (bone marrow-derived DCs; BP cells treated with CM of DMXAA-pre-treated TEMs, then olaparib, FIG. 7I) | production of anti-tumor cytokines (IFNg, Granzyme B, TNFa) in CD8+ and CD4+ T cells (BP tumors; after 21 days of treatments, DMXAA intratumoral, FIG. 9B-9C) | PBM-R tumor growth inhibition (PBM-R tumors) | PBM-R tumor weight (PBM-R tumors; MSA-2 25 mg/kg i.p. three times per week with olaparib 50 mg/kg + anti-PD-1, two weeks, FIG. 14D) | M2-like macrophage polarization induced by ovarian PDXs (human BMDMs; MSA-2 added, FIG. 25E) | STING pathway activation (p-TBK1+ p-IRF3+) in DCs (bone marrow-derived DCs; DCs co-cultured 24 hours with olaparib-treated BP cells, FIG. 5I) | population of tumor-associated macrophages (TAMs) (BP tumors; 21 days of treatment) | CD8+ T cells and effector CD8+ T cells in tumors (BP tumors; after seven days of treatment) | proportion of PD-1+CD8+ T cells (BP tumors; after seven days of treatment) | response of PBM-R-shStat3 tumors in vivo (PBM-R tumors; PBM-R cells with STAT3 knockdown, FIG. 19I) | PBM-R tumor response in vivo (PBM-R tumors; orthotopically re-transplanted to syngeneic host mice, FIG. 15E) | M2-like polarization induced by ovarian PDXs (human BMDMs; CM of olaparib-treated PDXs, FIG. 25C)
1 | Cc1ccc2c(=O)c3cccc(CC(=O)O)c3oc2c1C [DMXAA, 5,6-dimethyl-xanthenone-4-acetic acid] | restored | strongly up-regulated |  |  |  |  |  |  |  |  |  | 
2 | COc1cc2cc(C(=O)CCC(=O)O)sc2cc1OC [MSA-2] |  |  | little or no effect | sensitizes PARPi-resistant tumors to olaparib in vivo | reversed |  |  |  |  |  |  | 
3 | O=C(c1cc(Cc2n[nH]c(=O)c3ccccc23)ccc1F)N1CCN(C(=O)C2CC2)CC1 [olaparib] |  |  | little or no effect |  |  | activated the STING pathway in DCs | not significantly affected | not significantly changed | increased | became sensitive | indeed resistance to PARPi in vivo | further enhance
